Columns and labels:
Boophilus microplus [1] = experiment: Boophilus microplus test (BOOPMI injection), Example 1; assay type: in vivo; conditions: application rate 20 μg/animal, injected into abdomen, after 7 days
Protocol: Boophilus microplus Test (BOOPMI Injection) • Solvent: dimethyl sulphoxide To prepare an active ingredient formulation, 10 mg of active ingredient are mixed with 0.5 ml of solvent and the concentrate is diluted with water to the desired concentration. The active ingredient solution was injected into the abdomen (Boophilus microplus), and the animals were transferred to dishes and stored in a climate-controlled room. The efficacy was assessed by the number of fertile eggs laid. After 7 days, the efficacy in % is determined. 100% means that no tick laid fertile eggs.

Ctenocephalides felis = Ctenocephalides felis oral (CTECFE), Example 2; assay type: in vivo; conditions: application rate 20 ppm in citrated cow's blood, after 2 days
Protocol: Ctenocephalides felis Oral ([…]) • Solvent: 1 part by weight of dimethyl sulphoxide For the purpose of preparing an active ingredient formulation, 10 mg of active ingredient are mixed with 0.5 ml of dimethyl sulphoxide. A portion of the concentrate was diluted with citrated cow's blood and the desired concentration was prepared. 20 unfed adult fleas (Ctenocephalides felis) are placed into a chamber sealed at the top and bottom with gauze. A metal cylinder with its lower end sealed with Parafilm is placed onto the chamber. The cylinder contains the blood-active ingredient preparation, which can be consumed by the fleas through the Parafilm membrane. After 2 days, the kill rate in % is determined. 100% means that all fleas were killed; 0% means that no fleas were killed.

[2] = logP by HPLC on reverse-phase column (EEC Directive 79/831 Annex V.A8); assay type: physicochemical; conditions: for logP: HPLC-MS; for chromatographic logP: reverse-phase C18 HPLC column, pH 2.7, HPLC, C18 reverse phase, 43° C., acidic range pH 2.7, calibration with alkan-2-ones
Protocol: The logP values reported in the above Tables and Preparation Examples were determined according to EEC Directive 79/831 Annex V.A8 by HPLC (High Performance Liquid Chromatography) on a reverse-phase column (C18). Temperature 43° C.

Lucilia cuprina larvae [3] = experiment: Lucilia cuprina test (LUCICU), Example 3; assay type: in vivo; conditions: application rate 20 ppm, treated horsemeat, after 2 days
Protocol: (§1) Lucilia cuprina Test (LUCICU) • Solvent: dimethyl sulphoxide To prepare an active ingredient formulation, 10 mg of active ingredient are mixed with 0.5 ml of dimethyl sulphoxide, and the concentrate is diluted with water to the desired concentration. Vessels containing horsemeat which has been treated with the active ingredient formulation of the desired concentration are populated with Lucilia cuprina larvae. After 2 days, the kill rate in % is determined. 100% means that all larvae were killed; 0% means that no larvae were killed.

Musca domestica adults = experiment: Musca domestica test (MUSCDO), Example 14; assay type: in vivo; conditions: application rate 100 ppm, treated sponge, after 2 days
Protocol: Musca domestica Test (MUSCDO) • Solvent: dimethyl sulphoxide To prepare an appropriate active ingredient formulation, 10 mg of active ingredient are mixed with 0.5 ml of dimethyl sulphoxide, and the concentrate is diluted with water to the desired concentration. Vessels containing a sponge which has been treated with the active ingredient formulation of the desired concentration are populated with Musca domestica adults. After 2 days, the kill rate in % is determined. 100% means that all flies were killed; 0% means that no flies were killed.

Boophilus microplus [4] = experiment: Boophilus microplus test (BOOPMI injection), Example 11; assay type: in vivo; conditions: application rate 20 μg/animal, injected into abdomen, after 7 days
Method in brief: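 Adult ticks injected in the abdomen with compound diluted in DMSO, then held in a climate-controlled room. Efficacy in % determined after 7 days from fertile eggs laid; 100% means no tick laid fertile eggs.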

[5] = system: armyworm (Spodoptera frugiperda); experiment: Spodoptera frugiperda test (SPODFR spray treatment), Example 15; assay type: in vivo; conditions: Spodoptera frugiperda, foliar, 168 h; application rate 500 g/ha, maize leaf discs sprayed, after 7 days; read-out: efficacy in %
Method in brief: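 Maize leaf discs sprayed with active ingredient in acetone/DMF with alkylaryl polyglycol ether emulsifier, diluted in water, then populated with caterpillars after drying. Efficacy in % after 7 days: 100% all caterpillars killed, 0% none.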

[6] = system: red spider mite (Tetranychus urticae); experiment: Tetranychus test; OP-resistant (TETRUR spray treatment), Example 18; assay type: in vivo; conditions: Tetranychus urticae, foliar, 144 h, common bean leaf discs sprayed, after 6 days, read-out: efficacy in %
Protocol: Tetranychus Test; OP-Resistant (TETRUR Spray Treatment)
(§2) • Solvent: 78.0 parts by weight of acetone • 1.5 parts by weight of dimethylformamide • Emulsifier: 0.5 part by weight of alkylaryl polyglycol ether
To prepare an appropriate active ingredient formulation, 1 part by weight of active ingredient is mixed with the stated amounts of solvent and emulsifier, and the concentrate is diluted with emulsifier-containing water to the desired concentration. Leaf discs from the common bean (Phaseolus vulgaris) infested by all stages of the red spider mite (Tetranychus urticae) are sprayed with an active ingredient formulation of the desired concentration.
After 6 days, the efficacy in % is determined. 100% means that all spider mites were killed; 0% means that no spider mites were killed.

[7] = system: mustard beetle (Phaedon cochleariae); experiment: Phaedon test (PHAECO spray treatment), Example 16; assay type: in vivo; conditions: Phaedon cochleariae, foliar, china cabbage leaf discs sprayed, after the desired time, read-out: efficacy in %
Protocol: Phaedon Test (PHAECO Spray Treatment)
as §2
To prepare an appropriate active ingredient formulation, 1 part by weight of active ingredient is mixed with the stated amounts of solvent and emulsifier, and the concentrate is diluted with emulsifier-containing water to the desired concentration. […]
After the desired time, the efficacy in % is determined. 100% means that all beetle larvae were killed; 0% means that no beetle larvae were killed.

[8] = system: red spider mite (Tetranychus urticae); experiment: Tetranychus test, OP-resistant (TETRUR spray treatment), Example 8; assay type: in vivo; conditions: application rate 20 g/ha, common bean leaf discs sprayed, after 6 days
Method in brief: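 Bean (Phaseolus vulgaris) leaf discs carrying all stages of OP-resistant Tetranychus urticae sprayed with compound in acetone/DMF with emulsifier, diluted in water to the test concentration. Mortality scored after 6 days as % efficacy (100% = all mites killed).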

[9] = system: mustard beetle (Phaedon cochleariae); experiment: Phaedon test (PHAECO spray treatment), Example 7; assay type: in vivo; conditions: application rate 20 g/ha, china cabbage leaf discs sprayed, after 7 days
Method in brief: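 Spray formulation (acetone/DMF with alkylaryl polyglycol ether, diluted in emulsifier-containing water) applied to Chinese cabbage leaf discs, which were dried and then stocked with mustard beetle larvae. Efficacy scored at 7 days as % larvae killed (100% all, 0% none).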

[10] = system: green peach aphid (Myzus persicae); experiment: Myzus test (MYZUPE spray treatment), Example 17; assay type: in vivo; conditions: china cabbage leaf discs sprayed, after 6 days
Method in brief: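 Chinese cabbage leaf discs infested with all aphid stages were sprayed with compound formulated in acetone/dimethylformamide plus alkylaryl polyglycol ether emulsifier, diluted in emulsifier-containing water. Mortality read after 6 days as % efficacy (100% all killed, 0% none killed).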

Lucilia cuprina larvae [11] = experiment: Lucilia cuprina test (LUCICU), Example 13; assay type: in vivo; conditions: application rate 100 ppm, treated horsemeat, after 2 days
Protocol: as §1, with “prepare an appropriate active ingredient” for “prepare an active ingredient”, “populated with about 20 Lucilia cuprina” for “populated with Lucilia cuprina”

Structure (SMILES)	efficacy in % (fertile eggs laid) (Boophilus microplus [1])	kill rate in % (efficacy) (Ctenocephalides felis)	logP [2]	kill rate in % (efficacy) (Lucilia cuprina larvae [3])	efficacy in % (fertile eggs laid) (Boophilus microplus [4])	efficacy in % [9]	kill rate in % (efficacy) (Lucilia cuprina larvae [11])	other results
O=C(/C=C/c1ccc(C(=O)NCC(F)(F)F)c(Br)c1)NC(c1cccc(C(F)(F)F)c1)C(F)(F)F (stereo not drawn) [Ia-45]	100%	98%	HPLC-MS: logP = 3.60; mass	100%	100%	–	–	kill rate in % (efficacy) (Musca domestica adults): 100%
O=C(/C=C/c1ccc(C(=O)NC2CC2)c(C(F)(F)F)c1)NC(c1cc(Cl)cc(Cl)c1)C(F)(F)F (stereo not drawn) [Ia-24]	100%	100%	HPLC-MS: logP = 3.5; mass	80%	100%	–	–	–
O=C(/C=C/c1ccc(C(=O)NC2CC2)c(C(F)(F)F)c1)NC(c1cc(F)cc(C(F)(F)F)c1)C(F)(F)F (stereo not drawn) [Ia-229, N-[α,3-Bis(trifluoromethyl)-5-fluorobenzenemethane]-3-trifluoromethyl-4-(N-cyclopropylcarbamoyl)cinnamide]	–	–	–	–	–	–	–	pest or weed control at 500 g/ha [5]: 100%; chromatographic logP [2]: 3.59; pest or weed control at 500 g/ha ([6]; application rate 500 g/ha): 100%; pest or weed control at 500 g/ha ([7]; application rate 500 g/ha): 100%
CN(C(=O)c1ccc(/C=C/C(=O)NC(c2cccc(C(F)(F)F)c2)C(F)(F)F)cc1C(F)(F)F)C1CC1 (stereo not drawn) [Ia-60]	100%	100%	HPLC-MS: logP = 3.62; mass	90%	100%	100%	–	efficacy in % [8]: 90%; kill rate in % (efficacy) (Musca domestica adults): 95%
O=C(/C=C\c1ccc(C(=O)NC2CC2)c(Cl)c1)NC(c1cccc(C(F)(F)F)c1)C(F)(F)F (stereo not drawn) [Ig-1, 2-Chloro-N-cyclopropyl-4-[(1Z)-3-oxo-3-({2,2,2-trifluoro-1-[3-(trifluoromethyl)phenyl]ethyl}-amino)prop-1-en-1-yl]benzamide]	–	–	–	–	–	–	–	chromatographic logP [2]: 3.06; pest or weed control at 100 g/ha ([6]; application rate 100 g/ha): 80%; pest or weed control at 100 g/ha ([7]; application rate 100 g/ha): 100%
O=C(/C=C/c1ccc(C(=O)NC2CC2)c(C(F)(F)F)c1)NC(c1cc(Cl)cc(C(F)(F)F)c1)C(F)(F)F (stereo not drawn) [Ia-40, 4-[(1E,Z)-3-({1-[3-Chloro-5-(trifluoromethyl)phenyl]-2,2,2-trifluoroethyl}amino)-3-oxoprop-1-en-1-yl]-N-cyclopropyl-2-(trifluoromethyl)benzamide]	100%	100%	–	90%	–	–	–	chromatographic logP [2]: 3.68; kill rate in % (efficacy) (Musca domestica adults): 85%; pest or weed control at 0.02 mg (Boophilus microplus [4]; Rhipicephalus microplus, 168 h, read-out: efficacy in % (fertile eggs laid)): 100%
O=C(/C=C/c1ccc(C(=O)NC2CC2)c(Cl)c1)NC(c1cccc(C(F)(F)F)c1)C(F)(F)F (stereo not drawn) [Ia-43]	100%	100%	HPLC-MS: logP = 3.22; mass	100%	100%	100%	–	efficacy in % ([10]; application rate 500 g/ha): 80%
O=C(/C=C/c1ccc(C(=O)NCc2ccc(F)cn2)c(C(F)(F)F)c1)NC(c1cccc(C(F)(F)F)c1)C(F)(F)F (stereo not drawn) [Ia-73]	100%	95%	HPLC-MS: logP = 3.31; mass	–	100%	100%	80%	efficacy in % [8]: 100%
O=C(/C=C/c1ccc(C(=O)NCc2ccc(Cl)nc2)c(C(F)(F)F)c1)NC(c1cccc(C(F)(F)F)c1)C(F)(F)F (stereo not drawn) [Ia-80]	100%	100%	HPLC-MS: logP = 3.65; mass	–	100%	100%	80%	–
O=C(/C=C/c1ccc(C(=O)NC2CC2)c(Br)c1)NC(c1cccc(C(F)(F)F)c1)C(F)(F)F (stereo not drawn) [Ia-42]	100%	100%	HPLC-MS: logP = 3.23; mass	100%	100%	–	–	–
O=C(/C=C/c1ccc(C(=O)NCc2ccccc2)c(C(F)(F)F)c1)NC(c1cccc(C(F)(F)F)c1)C(F)(F)F (stereo not drawn) [Ia-31]	100%	95%	HPLC-MS: logP = 3.68; mass	–	100%	–	90%	–
CC(NC(=O)c1ccc(/C=C/C(=O)NC(c2c(F)cccc2F)C(F)(F)F)cc1C(F)(F)F)C(F)(F)F (stereo not drawn) [Ia-29]	100%	–	HPLC-MS: logP = 3.41; mass	–	100%	–	80%	–
NC(=O)c1ccc(/C=C/C(=O)NC(c2cccc(C(F)(F)F)c2)C(F)(F)F)cc1C(F)(F)F (stereo not drawn) [Ia-142]	–	–	HPLC-MS: logP = 2.89; mass	–	100%	–	90%	efficacy in % ([10]; application rate 100 g/ha): 100%; kill rate in % (efficacy) (Musca domestica adults): 90%
Cc1cc(/C=C/C(=O)NC(c2cccc(C(F)(F)F)c2)C(F)(F)F)ccc1C(=O)NCc1ccccn1 (stereo not drawn) [Ia-22]	100%	100%	HPLC-MS: logP = 2.65; mass	90%	100%	100%	–	efficacy in % ([10]; application rate 500 g/ha): 100%

From US8889878B2, “Haloalky-substituted amides as insecticides and acaricides” (Bayer CropScience AG, priority 2009, dated 2014)
